The values that follow come from patent US7314970B2, “Method for plant breeding” (priority 1997, dated 2008).

One data set has as its system most plant species. As to conditions: most plant species (Franz, 1985), but not all; cited from earlier work.
The subject of data set [1] is DK580 and DK626 hybrids of FI117, GA21, GG25 and GJ11. In words: Yield effect of glyphosate application on DK580 and DK626 hybrids (field test). It is filed as in vivo, maize. As for the experimental part:
Tests were designed as four row, 3 rep., split-split-plot with main plots as hybrids, subplots as transformant sources (i.e. GA21, GG25, FI117, and GJ11) and subplots as timing/rate combinations […]. Statistical methods for design and analysis of data derived from experimental field plots are described in Gomez and Gomez, (1984). Tests were conducted in Dekalb, Ill., and Thomasboro, Ill. during 1996. All rows were planted at double normal planting density, i.e., 60 seeds per row, because hybrids segregated 1:1 for the glyphosate resistance trait. Sprayed plants were thinned to 30 plants per row no sooner than 7 days after application of Roundup at a time when Roundup susceptible plants could be identified. Unsprayed plots were thinned to 30 plants per row at the same time. […] After thinning, the mean extended leaf height was measured on 10 resistant plants per plot. […]
Four DK580 and four DK626 hybrids, each containing a different mutant EPSPS transgene from one of the GA21, FI117, GJ11 or GG25 transformation events, were field tested for possible effects on yield with glyphosate application as described in Example 12, with treatments as shown in FIG. 13. […] Data were analyzed using the SAS PROC MIXED and PROC SUM procedures. […]

In data set [2] the test system is DK580 and DK626 BC4 hybrids of FI117, GA21, GG25 and GJ11. The experiment in a line: Effect of glyphosate application on growth and fertility of DK580 and DK626 hybrids (field test). It is filed as in vivo, maize. From the text: BC4 hybrids of DK580 and DK626 were produced containing one of the FI117, GA21, GG25 or GJ11 transformation events as described in example 14. Comparisons of the effect of glyphosate application on growth (mean extended leaf height) and male fertility was compared at both the V4 and V8 developmental stage. The developmental scale that was used to rate the corn plants is well known in the art, and is described in Special Report No. 48, Iowa State University of Science and Technology, Cooperative Extension Service, Ames, Iowa. Each of the hybrids was studied at both the V4 and V8 stage using 0× glyphosate (i.e. water only), 1× glyphosate, or 4× glyphosate (the 1× level corresponds to 16 ounces/acre of ROUNDUP ULTRA™).
Tests were designed as four row, 3 rep., split-split-plot with main plots as hybrids, subplots as transformant sources (i.e. GA21, GG25, FI117, and GJ11) and subplots as timing/rate combinations […]. Statistical methods for design and analysis of data derived from experimental field plots are described in Gomez and Gomez, (1984). Tests were conducted in Dekalb, Ill., and Thomasboro, Ill. during 1996. All rows were planted at double normal planting density, i.e., 60 seeds per row, because hybrids segregated 1:1 for the glyphosate resistance trait. Sprayed plants were thinned to 30 plants per row no sooner than 7 days after application of Roundup at a time when Roundup susceptible plants could be identified. Unsprayed plots were thinned to 30 plants per row at the same time. At 5-10 days after herbicide application, the following data was collected in each row: number of dead plants, number of damaged plants, and number of normal plants. After thinning, the mean extended leaf height was measured on 10 resistant plants per plot. During the remainder of the growing season the following agronomic data was collected: early stand count, seedling vigor, final stand count, plant height, ear height, intactness, stay green, number of barren plants, number of male-sterile plants, number of dropped ears, number of root lodged plants, number of stalks lodged plants, shelled grain weight, per cent grain moisture at harvest, and test weight.

On to `NCP(=O)(O)O` [AMPA, aminomethylphosphonate], for which the “phytotoxicity relative to glyphosate” value in the data set with most plant species is given as “much less phytotoxic than glyphosate”.
As to `O=C(O)CNCP(=O)(O)O` [glyphosate, N-phosphonomethyl-glycine], the effect on yield result is “significant decreases in yield are not observed for 3 of the 4 DK580 hybrids” in data set [1] (DK580 hybrids, glyphosate applied at V4 stage) and “no significant loss in yield” in data set [1] (DK626 hybrids with GA21 or FI117, V8 stage, 4× rate). In addition, the male fertility result in data set [2] (all 4 GA21 treatments) was “male-fertile plants”; in data set [2] (application at V4 stage, all plants), “male-fertile”; in data set [2] (application at V8 stage, only GJ11 and GJ25 treatments), “male sterile plants”. Besides, the “resistance to glyphosate (mean extended leaf height)” value in data set [2] (all 4 transformation events, 1× and 4× application levels (1× = 16 ounces/acre ROUNDUP ULTRA)) is listed as “significant resistance”.
